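1) Cells in 96-well plates. 2) Compound, 48 h, 5 concentrations. 3) Linear interpolation between surrounding doses. 4) Unreached endpoint = highest concentration. The concentration for full growth arrest is given as TGI.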
How the values were obtained:
Assay in all cases: growth of human tumour cells (NCI), 48 h
HL-60(TB) leukemia = tested on: HL-60(TB) leukemia
UACC-257 melanoma = tested on: UACC-257 melanoma
SK-OV-3 ovarian = tested on: SK-OV-3 ovarian
SR leukemia = tested on: SR leukemia
LOX IMVI melanoma = tested on: LOX IMVI melanoma
OVCAR-5 ovarian = tested on: OVCAR-5 ovarian
NCI-H23 lung = tested on: NCI-H23 lung
OVCAR-8 ovarian = tested on: OVCAR-8 ovarian
CAKI-1 renal = tested on: CAKI-1 renal
SN12C renal = tested on: SN12C renal
IGROV1 ovarian = tested on: IGROV1 ovarian
SF-295 CNS = tested on: SF-295 CNS
NCI-H460 lung = tested on: NCI-H460 lung
SK-MEL-2 melanoma = tested on: SK-MEL-2 melanoma
MALME-3M melanoma = tested on: MALME-3M melanoma
SNB-19 CNS = tested on: SNB-19 CNS
M14 melanoma = tested on: M14 melanoma
HCT-116 colon = tested on: HCT-116 colon
UACC-62 melanoma = tested on: UACC-62 melanoma
COLO 205 colon = tested on: COLO 205 colon
CCRF-CEM leukemia = tested on: CCRF-CEM leukemia
BT-549 breast = tested on: BT-549 breast
SK-MEL-5 melanoma = tested on: SK-MEL-5 melanoma
HOP-62 NSCLC = tested on: HOP-62 NSCLC
TK-10 renal = tested on: TK-10 renal
T-47D breast = tested on: T-47D breast
SF-268 CNS = tested on: SF-268 CNS
MOLT-4 leukemia = tested on: MOLT-4 leukemia
HOP-92 NSCLC = tested on: HOP-92 NSCLC
EKVX NSCLC = tested on: EKVX NSCLC
U251 CNS = tested on: U251 CNS
SF-539 CNS = tested on: SF-539 CNS
MDA-MB-435 = tested on: MDA-MB-435
SW-620 colon = tested on: SW-620 colon
A549 NSCLC = tested on: A549 NSCLC
NCI/ADR-RES ovarian = tested on: NCI/ADR-RES ovarian
HCT-15 colon = tested on: HCT-15 colon
SK-MEL-28 melanoma = tested on: SK-MEL-28 melanoma
MCF7 breast = tested on: MCF7 breast
HS 578T breast = tested on: HS 578T breast
RXF 393 renal = tested on: RXF 393 renal
NCI-H522 lung = tested on: NCI-H522 lung
ACHN renal = tested on: ACHN renal
786-0 renal = tested on: 786-0 renal
HT29 colon = tested on: HT29 colon
KM12 colon = tested on: KM12 colon
OVCAR-4 ovarian = tested on: OVCAR-4 ovarian
SNB-75 CNS = tested on: SNB-75 CNS
OVCAR-3 ovarian = tested on: OVCAR-3 ovarian
MDA-N = tested on: MDA-N
UO-31 renal = tested on: UO-31 renal
DU-145 prostate = tested on: DU-145 prostate
A498 renal = tested on: A498 renal
PC-3 prostate = tested on: PC-3 prostate
RPMI-8226 leukemia = tested on: RPMI-8226 leukemia
NCI-H226 lung = tested on: NCI-H226 lung
HCC-2998 colon = tested on: HCC-2998 colon
K-562 leukemia = tested on: K-562 leukemia
MDA-MB-231 breast = tested on: MDA-MB-231 breast

`CCOC(=O)c1nc2cc(F)c(F)cc2nc1NCc1cc(OC)c(OC)c(OC)c1` was tested. Which TGI (HL-60(TB) leukemia) did it give?
The TGI was > 100 µM.

And the TGI (UACC-257 melanoma)?
The TGI was > 100 µM.

And the TGI (SK-OV-3 ovarian)?
Its TGI is > 100 µM.

What about the TGI (SR leukemia) of the same compound?
Its TGI is > 100 µM.

And the TGI (LOX IMVI melanoma)?
Its TGI is > 100 µM.

And the TGI (OVCAR-5 ovarian)?
The TGI was > 100 µM.

What about the TGI (NCI-H23 lung) of the same compound?
The TGI was > 100 µM.

What about the TGI (OVCAR-8 ovarian) of the same compound?
Its TGI is > 100 µM.

And the TGI (CAKI-1 renal)?
Its TGI is > 100 µM.

What about the TGI (SN12C renal) of the same compound?
The TGI was > 100 µM.

What about the TGI (IGROV1 ovarian) of the same compound?
Its TGI is > 100 µM.

What about the TGI (SF-295 CNS) of the same compound?
The TGI was > 100 µM.

What about the TGI (NCI-H460 lung) of the same compound?
The TGI was > 100 µM.

And the TGI (SK-MEL-2 melanoma)?
Its TGI is > 100 µM.

What about the TGI (MALME-3M melanoma) of the same compound?
Its TGI is > 100 µM.

What about the TGI (SNB-19 CNS) of the same compound?
Its TGI is > 100 µM.

And the TGI (M14 melanoma)?
The TGI was > 100 µM.

What about the TGI (HCT-116 colon) of the same compound?
Its TGI is > 100 µM.

What about the TGI (UACC-62 melanoma) of the same compound?
Its TGI is > 100 µM.

What about the TGI (COLO 205 colon) of the same compound?
The TGI was > 100 µM.

What about the TGI (CCRF-CEM leukemia) of the same compound?
The TGI was > 100 µM.

And the TGI (BT-549 breast)?
Its TGI is > 100 µM.

What about the TGI (SK-MEL-5 melanoma) of the same compound?
Its TGI is > 100 µM.

What about the TGI (HOP-62 NSCLC) of the same compound?
The TGI was > 100 µM.

And the TGI (TK-10 renal)?
Its TGI is > 100 µM.

What about the TGI (T-47D breast) of the same compound?
Its TGI is > 100 µM.

What about the TGI (SF-268 CNS) of the same compound?
Its TGI is > 100 µM.

And the TGI (MOLT-4 leukemia)?
The TGI was > 100 µM.

What about the TGI (HOP-92 NSCLC) of the same compound?
The TGI was > 100 µM.

What about the TGI (EKVX NSCLC) of the same compound?
Its TGI is > 100 µM.

What about the TGI (U251 CNS) of the same compound?
The TGI was > 100 µM.

And the TGI (SF-539 CNS)?
Its TGI is > 100 µM.

And the TGI (MDA-MB-435)?
The TGI was > 100 µM.

What about the TGI (SW-620 colon) of the same compound?
The TGI was > 100 µM.

And the TGI (A549 NSCLC)?
Its TGI is > 100 µM.

What about the TGI (NCI/ADR-RES ovarian) of the same compound?
Its TGI is > 100 µM.

And the TGI (HCT-15 colon)?
Its TGI is > 100 µM.

What about the TGI (SK-MEL-28 melanoma) of the same compound?
Its TGI is > 100 µM.

What about the TGI (MCF7 breast) of the same compound?
Its TGI is > 100 µM.

And the TGI (HS 578T breast)?
The TGI was > 100 µM.

And the TGI (RXF 393 renal)?
Its TGI is > 100 µM.

And the TGI (NCI-H522 lung)?
Its TGI is > 100 µM.

And the TGI (ACHN renal)?
Its TGI is > 100 µM.

And the TGI (786-0 renal)?
The TGI was > 100 µM.

What about the TGI (HT29 colon) of the same compound?
The TGI was > 100 µM.

And the TGI (KM12 colon)?
The TGI was > 100 µM.

What about the TGI (OVCAR-4 ovarian) of the same compound?
Its TGI is > 100 µM.

And the TGI (SNB-75 CNS)?
Its TGI is > 100 µM.

What about the TGI (OVCAR-3 ovarian) of the same compound?
Its TGI is > 100 µM.

What about the TGI (MDA-N) of the same compound?
The TGI was > 100 µM.

And the TGI (UO-31 renal)?
The TGI was > 100 µM.

And the TGI (DU-145 prostate)?
The TGI was > 100 µM.

What about the TGI (A498 renal) of the same compound?
The TGI was > 100 µM.

And the TGI (PC-3 prostate)?
The TGI was > 100 µM.

For `CN(O)C(=O)c1ccc(OCc2cccc(Cl)c2)cc1`, which TGI (HL-60(TB) leukemia) is on record?
The TGI was 22.2 µM.

What about the TGI (UACC-257 melanoma) of the same compound?
Its TGI is > 100 µM.

And the TGI (SK-OV-3 ovarian)?
Its TGI is > 100 µM.

What about the TGI (SR leukemia) of the same compound?
The TGI was > 72.4 µM.

And the TGI (RPMI-8226 leukemia)?
The TGI was > 100 µM.

And the TGI (LOX IMVI melanoma)?
The TGI was > 100 µM.

And the TGI (OVCAR-5 ovarian)?
Its TGI is > 100 µM.

And the TGI (NCI-H23 lung)?
Its TGI is > 100 µM.

And the TGI (OVCAR-8 ovarian)?
The TGI was > 95.9 µM.

What about the TGI (CAKI-1 renal) of the same compound?
Its TGI is > 92.6 µM.

And the TGI (SN12C renal)?
Its TGI is > 95.1 µM.

What about the TGI (IGROV1 ovarian) of the same compound?
Its TGI is > 100 µM.

What about the TGI (SF-295 CNS) of the same compound?
Its TGI is > 82.8 µM.

And the TGI (NCI-H460 lung)?
Its TGI is > 100 µM.

What about the TGI (SK-MEL-2 melanoma) of the same compound?
Its TGI is > 100 µM.

And the TGI (SNB-19 CNS)?
The TGI was > 100 µM.

And the TGI (M14 melanoma)?
The TGI was > 50 µM.

And the TGI (HCT-116 colon)?
The TGI was > 100 µM.

And the TGI (UACC-62 melanoma)?
The TGI was > 79.4 µM.

What about the TGI (NCI-H226 lung) of the same compound?
The TGI was > 100 µM.

And the TGI (COLO 205 colon)?
Its TGI is > 100 µM.

What about the TGI (CCRF-CEM leukemia) of the same compound?
Its TGI is > 100 µM.

And the TGI (BT-549 breast)?
Its TGI is > 100 µM.

What about the TGI (SK-MEL-5 melanoma) of the same compound?
Its TGI is > 100 µM.

And the TGI (HOP-62 NSCLC)?
The TGI was > 100 µM.

What about the TGI (HCC-2998 colon) of the same compound?
Its TGI is > 53.3 µM.

What about the TGI (TK-10 renal) of the same compound?
The TGI was > 100 µM.

What about the TGI (T-47D breast) of the same compound?
The TGI was 98.6 µM.

What about the TGI (K-562 leukemia) of the same compound?
Its TGI is > 100 µM.

And the TGI (SF-268 CNS)?
The TGI was > 100 µM.

And the TGI (MOLT-4 leukemia)?
The TGI was > 100 µM.

What about the TGI (HOP-92 NSCLC) of the same compound?
The TGI was > 100 µM.

And the TGI (EKVX NSCLC)?
The TGI was > 100 µM.

What about the TGI (U251 CNS) of the same compound?
The TGI was > 100 µM.

And the TGI (SF-539 CNS)?
The TGI was > 51.6 µM.

What about the TGI (MDA-MB-435) of the same compound?
The TGI was > 100 µM.

What about the TGI (MDA-MB-231 breast) of the same compound?
Its TGI is > 100 µM.

What about the TGI (SW-620 colon) of the same compound?
The TGI was > 100 µM.

What about the TGI (A549 NSCLC) of the same compound?
The TGI was > 100 µM.

What about the TGI (NCI/ADR-RES ovarian) of the same compound?
Its TGI is > 89.4 µM.

What about the TGI (HCT-15 colon) of the same compound?
The TGI was > 100 µM.

And the TGI (SK-MEL-28 melanoma)?
The TGI was > 100 µM.

And the TGI (MCF7 breast)?
Its TGI is > 100 µM.

What about the TGI (HS 578T breast) of the same compound?
Its TGI is > 100 µM.

What about the TGI (RXF 393 renal) of the same compound?
Its TGI is > 100 µM.

And the TGI (NCI-H522 lung)?
The TGI was > 100 µM.

What about the TGI (ACHN renal) of the same compound?
Its TGI is > 68.3 µM.

And the TGI (786-0 renal)?
The TGI was 53.1 µM.

And the TGI (HT29 colon)?
The TGI was > 100 µM.

What about the TGI (KM12 colon) of the same compound?
Its TGI is > 100 µM.

What about the TGI (OVCAR-4 ovarian) of the same compound?
Its TGI is > 100 µM.

What about the TGI (SNB-75 CNS) of the same compound?
The TGI was > 100 µM.

And the TGI (OVCAR-3 ovarian)?
The TGI was > 100 µM.

And the TGI (MDA-N)?
Its TGI is > 100 µM.

What about the TGI (UO-31 renal) of the same compound?
Its TGI is > 66.5 µM.

What about the TGI (DU-145 prostate) of the same compound?
Its TGI is 98.2 µM.

And the TGI (A498 renal)?
The TGI was > 100 µM.

What about the TGI (PC-3 prostate) of the same compound?
Its TGI is > 100 µM.

Reference: PubChem BioAssay (NCI)
